Results taken from ChEMBL document CHEMBL3045535, “Evaluation of lufenuron as a chemosterilant against fruit flies of the genus Anastrepha (Diptera: Tephritidae)” (2010).

What was measured:
Assay type in all cases: functional
Set-up in all cases: scale not given: the % may be the effect or the level left
Anastrepha obliqua [1] = assay: Reduction of fertility in 7 days old adult of Anastrepha obliqua assessed as reduction of egg hatching at 1 mg/g treated with diet measured after 9 days oviposition
Anastrepha obliqua [2] = assay: Reduction of fertility in 7 days old adult of Anastrepha obliqua assessed as reduction of egg hatching at 1 mg/g treated with diet measured after 3 days oviposition
Anastrepha serpentina = assay: Reduction of fertility in 7 days old adult of Anastrepha serpentina assessed as reduction of egg hatching at 1 mg/g treated with diet measured after 5 days oviposition

`O=C(NC(=O)c1c(F)cccc1F)Nc1cc(Cl)c(OC(F)(F)C(F)C(F)(F)F)cc1Cl` (racemic) [LUFENURON] gave an Activity (Anastrepha obliqua [1]) of 0%, an Activity (Anastrepha obliqua [2]) of 0% and an Activity (Anastrepha serpentina) of 71.8%.
